Here are results for 24 molecules from PMC6001364 (European journal of medicinal chemistry, 2018).

The subject of data set [1] is K103 N + Y181C double mutant HIV-1 strain (RES056). Nature of the data set: Anti-HIV-1 activity against double mutant RES056 in MT-4 cells, MTT method. The conditions noted are these: for EC50 RES056: MT-4 cells, MTT method; for SI RES056: ratio of CC50/EC50, MT-4 cells, values given with symbol X1. It is filed as cell-based.
Data set [2] concerns WT HIV-1 strain (IIIB). It counts as cell-based. The settings on record: ratio of CC50/EC50, MT-4 cells.
Data set [3] concerns HIV-1 Y188L mutant strain. The experiment in a line: microbe, parasite or virus in culture. The conditions noted are these: for EC50: Human immunodeficiency virus 1, MT4, read-out: EC50 Y188L. It counts as cell-based.
Data set [4] concerns HIV-1 F227L + V106A mutant strain. Nature of the data set: microbe, parasite or virus in culture. It counts as cell-based.
For data set [5], the system named is K103 N + Y181C double mutant HIV-1 strain (RES056). The conditions noted are these: cited from earlier work.
Another data set concerns MT-4 cells. The conditions noted are these: cited from earlier work.
For data set [6], the system named is WT HIV-1 strain (IIIB). The settings on record: cited from earlier work.
The nature of data set [7]: Cytotoxicity in mock-infected MT-4 cells, MTT method. It counts as cell-based. The settings on record: human.
In a further data set the target is HIV-1 RT (Human immunodeficiency virus type 1 group M subtype B, UniProt P03366). The settings on record: read-out: IC50 against HIV-1 RT; cited from earlier work.
In the next data set the test system is wild-type HIV-1 (NL4-3). The experiment in a line: Inhibition of wild-type HIV-1. The conditions noted are these: ratio of CC50/EC50, TZM-bl cells. It is filed as cell-based.
For data set [8], the system named is HIV-1 L100I mutant strain. Nature of the data set: microbe, parasite or virus in culture. It counts as cell-based.
For data set [9], the system named is HIV-1 Y181C mutant strain. It is filed as cell-based.
The subject of data set [10] is HIV-1 E138K mutant strain. Nature of the data set: microbe, parasite or virus in culture. It is filed as cell-based.
The subject of data set [11] is HIV-1 K103 N mutant strain. It counts as cell-based. The conditions noted are these: ratio of CC50/EC50, MT-4 cells.

Where two headings read alike, the source gives them in different places. Bounds are passed on as bounds.

Take `Cc1cc(C)c(Oc2cc(Nc3ccc(C#N)cc3)ncc2C(=O)NCc2cn(CC(=O)N3CCCC3)nn2)c(C)c1` [3b8, 6-((4-cyanophenyl)amino)-4-(mesityloxy)-N-((1-(2-oxo-2-(pyrrolidin-1-yl)ethyl)-1H-1,2,3-triazol-4-yl)methyl)nicotinamide]: the “EC50 RES056” value in [1] is “low micromolar concentration”. In the case of `Cc1cc(C)c(Oc2cc(Nc3ccc(C#N)cc3)ncc2C(=O)NCc2cn(Cc3ccccc3C#N)nn2)c(C)c1` [3a4, N-((1-(2-cyanobenzyl)-1H-1,2,3-triazol-4-yl)methyl)-6-((4-cyanophenyl)amino)-4-(mesityloxy)nicotinamide], the “SI IIIB” value in the data set on WT HIV-1 strain (IIIB) [2] is given as greater than 5589. Moreover, the “SI RES056” value in [1] is “X1”. On to `Cc1cc(C)c(Oc2cc(Nc3ccc(C#N)cc3)ncc2C(=O)NCc2cn(Cc3cccc(F)c3)nn2)c(C)c1` [3a7, N-((1-(3-fluorobenzyl)-1H-1,2,3-triazol-4-yl)methyl)-6-((4-cyanophenyl)amino)-4-(mesityloxy)nicotinamide], for which the “SI IIIB” value in the data set on WT HIV-1 strain (IIIB) [2] is listed as no less than 2608. Consider `Cc1cc(C)c(Oc2cc(Nc3ccc(C#N)cc3)ncc2C(=O)NCc2cn(Cc3ccccc3F)nn2)c(C)c1` [3a2, N-((1-(2-fluorobenzyl)-1H-1,2,3-triazol-4-yl)methyl)-6-((4-cyanophenyl)amino)-4-(mesityloxy)nicotinamide], for which, in the data set on WT HIV-1 strain (IIIB) [2], the “SI IIIB” value is listed as greater than 2348. Besides, the “SI RES056” value in data set [1] was “X1”.

`Cc1cc(C)c(Oc2cc(Nc3ccc(C#N)cc3)ncc2C(=O)NCc2cn(Cc3cccc(C#N)c3)nn2)c(C)c1` [3a9, N-((1-(3-cyanobenzyl)-1H-1,2,3-triazol-4-yl)methyl)-6-((4-cyanophenyl)amino)-4-(mesityloxy)nicotinamide]: in the data set with WT HIV-1 strain (IIIB) [2], the “SI IIIB” value is given as no less than 5213.

As to `Cc1cc(C)c(Oc2cc(Nc3ccc(C#N)cc3)ncc2C(=O)NCc2cn(Cc3cccc([N+](=O)[O-])c3)nn2)c(C)c1` [3a10, N-((1-(3-nitrobenzyl)-1H-1,2,3-triazol-4-yl)methyl)-6-((4-cyanophenyl)amino)-4-(mesityloxy)nicotinamide], in the data set on WT HIV-1 strain (IIIB) [2], the “SI IIIB” value is listed as no less than 4220. Turning to `Cc1cc(C)c(Oc2cc(Nc3ccc(C#N)cc3)ncc2C(=O)NCc2cn(Cc3ccc([N+](=O)[O-])cc3)nn2)c(C)c1` [3a14, N-((1-(4-nitrobenzyl)-1H-1,2,3-triazol-4-yl)methyl)-6-((4-cyanophenyl)amino)-4-(mesityloxy)nicotinamide], the “SI IIIB” value in the data set with WT HIV-1 strain (IIIB) [2] was no less than 3498. With `O=C1Nc2ccc(Cl)cc2[C@@](C#CC2CC2)(C(F)(F)F)O1` [EFV, Efavirenz], the EC50 came to 340 ± 10 nM in data set [3] and 210 ± 8 nM in data set [4] (Human immunodeficiency virus 1, MT4, read-out: EC50 F227L + V106A). In the case of `Cc1cc(C)c(Oc2cc(Nc3ccc(C#N)cc3)ncc2C(=O)NCc2cn(Cc3ccccc3[N+](=O)[O-])nn2)c(C)c1` [3a5, N-((1-(2-nitrobenzyl)-1H-1,2,3-triazol-4-yl)methyl)-6-((4-cyanophenyl)amino)-4-(mesityloxy)nicotinamide], the “SI IIIB” value in the data set with WT HIV-1 strain (IIIB) [2] is greater than 3724. Also, the “SI RES056” value in data set [1] is “X1”. For the molecule `Cc1cc(C)c(Oc2cc(Nc3ccc(C#N)cc3)ncc2C(=O)NCc2cn(CCC#N)nn2)c(C)c1` [3b2, N-((1-(2-cyanoethyl)-1H-1,2,3-triazol-4-yl)methyl)-6-((4-cyanophenyl)amino)-4-(mesityloxy)nicotinamide], the “SI IIIB” value with WT HIV-1 strain (IIIB) [2] came to 2044. In addition, in [1], the “EC50 RES056” value is recorded as “low micromolar concentration”.

On to `Cc1cc(C)c(Oc2cc(Nc3ccc(C#N)cc3)ncc2C(=O)NCc2cn(Cc3ccc(Cl)cc3)nn2)c(C)c1` [3a13, N-((1-(4-chlorobenzyl)-1H-1,2,3-triazol-4-yl)methyl)-6-((4-cyanophenyl)amino)-4-(mesityloxy)nicotinamide], for which the “SI IIIB” value with WT HIV-1 strain (IIIB) [2] is given as no less than 620. Consider `C#CCNC(=O)c1cnc(Nc2ccc(C#N)cc2)cc1Oc1c(C)cc(C)cc1C` [L-6b5, 6-((4-cyanophenyl)amino)-4-(mesityloxy)-N-(prop-2-yn-1-yl)nicotinamide], for which, in [5] (ratio of CC50/EC50), the “SI RES056” value is given as 12. Moreover, the EC50 in data set [5] (read-out: EC50 RES056, MT-4 cells) was 6100 ± 540 nM; with WT HIV-1 strain (IIIB) [6] (read-out: EC50 IIIB, MT-4 cells), 29 ± 5 nM. In the data set on MT-4 cells, the CC50 is 73000 ± 26900 nM. Moreover, the “SI IIIB” value in the data set with WT HIV-1 strain (IIIB) [6] (ratio of CC50/EC50) is recorded as 2471. As to `Cc1cc(C#N)cc(C)c1Oc1nc(Nc2ccc(C#N)cc2)nc(N)c1Br` [ETR, Etravirine], the midpoint of cytotoxicity in data set [7], the CC50 at 5 days, lay at 2460 nM.

As for `Cc1cc(C)c(Oc2cc(Nc3ccc(C#N)cc3)ncc2C(=O)NCc2cn(CCCO)nn2)c(C)c1` [3b1, 6-((4-cyanophenyl)amino)-N-((1-(3-hydroxypropyl)-1H-1,2,3-triazol-4-yl)methyl)-4-(mesityloxy)nicotinamide], the “EC50 RES056” value in data set [1] is “low micromolar concentration”. Take `Cc1cc(C)c(Oc2cc(Nc3ccc(C#N)cc3)ncc2C(=O)NCc2cn(Cc3ccccc3Cl)nn2)c(C)c1` [3a3, N-((1-(2-chlorobenzyl)-1H-1,2,3-triazol-4-yl)methyl)-6-((4-cyanophenyl)amino)-4-(mesityloxy)nicotinamide]: in the data set with WT HIV-1 strain (IIIB) [2], the “SI IIIB” value is recorded as no less than 1807. As for `Cc1cc(C)c(Oc2cc(Nc3ccc(C#N)cc3)ncc2C(=O)NCc2cn(Cc3ccc(F)cc3)nn2)c(C)c1` [3a12, N-((1-(4-fluorobenzyl)-1H-1,2,3-triazol-4-yl)methyl)-6-((4-cyanophenyl)amino)-4-(mesityloxy)nicotinamide], the “SI IIIB” value with WT HIV-1 strain (IIIB) [2] was no less than 2056. Take `CCOc1ccnc(CCNC(=S)Nc2ccc(Cl)cn2)c1F` [PETT-2]: on HIV-1 RT, the half-maximal inhibitory concentration (IC50) is 5 nM. `Cc1cc(C)c(Oc2cc(Nc3ccc(C#N)cc3)ncc2C(=O)NCc2cn(CC(=O)N3CCOCC3)nn2)c(C)c1` [3b9, 6-((4-cyanophenyl)amino)-4-(mesityloxy)-N-((1-(2-morpholino-2-oxoethyl)-1H-1,2,3-triazol-4-yl)methyl)nicotinamide]: the “SI IIIB” value in the data set on WT HIV-1 strain (IIIB) [2] was determined as 9279. Further, in the data set on wild-type HIV-1 (NL4-3), the SI is greater than 10.8. The “EC50 RES056” value in [1] is “low micromolar concentration”. Consider `CC(=O)Cn1cc(CNC(=O)c2cnc(Nc3ccc(C#N)cc3)cc2Oc2c(C)cc(C)cc2C)nn1` [3b3, 6-((4-cyanophenyl)amino)-4-(mesityloxy)-N-((1-(2-oxopropyl)-1H-1,2,3-triazol-4-yl)methyl)nicotinamide], for which the “EC50 RES056” value in data set [1] was “low micromolar concentration”. Turning to `Cc1cc(C)c(Oc2cc(Nc3ccc(C#N)cc3)ncc2C(=O)NCc2cn(Cc3ccccc3C)nn2)c(C)c1` [3a1, N-((1-(2-methylbenzyl)-1H-1,2,3-triazol-4-yl)methyl)-6-((4-cyanophenyl)amino)-4(mesityloxy)nicotinamide], the “SI IIIB” value in the data set on WT HIV-1 strain (IIIB) [2] is no less than 2132. Consider `Cc1ccnc2c1NC(=O)c1cccnc1N2C1CC1` [NVP, Nevirapine], for which the 50% effective concentration (EC50) in data set [8] (Human immunodeficiency virus 1, MT4, read-out: EC50 L100I) is 830 ± 320 nM; in data set [3] it was 9610 ± 1860 nM. For the molecule `Cc1cn([C@H]2C[C@H](N=[N+]=[N-])[C@@H](CO)O2)c(=O)[nH]c1=O` [AZT, Zidovudine], the “Resistance Folds Y181C” value in data set [9] (ratio of EC50 against mutant strain/EC50 against WT strain) came out at 1.0. Also, the EC50 in data set [10] (Human immunodeficiency virus 1, MT4, read-out: EC50 E138K) worked out at 13 ± 4 nM. As for `CC(C)Nc1cccnc1N1CCN(C(=O)c2cc3cc(NS(C)(=O)=O)ccc3[nH]2)CC1` [DLV, Delavirdine], the “SI Y181C” value in data set [9] (ratio of CC50/EC50, MT-4 cells) was 15. The “SI K103 N” value in data set [11] is 12. Also, in [8] (ratio of CC50/EC50, MT-4 cells), the “SI L100I” value is 14. Moreover, in data set [7], the midpoint of cytotoxicity, the CC50 at 5 days, lay at 36800 nM. Besides, in data set [10] (ratio of CC50/EC50, MT-4 cells), the “SI E138K” value worked out at 715. The “SI Y188L” value in data set [3] (ratio of CC50/EC50, MT-4 cells) is recorded as 44. Besides, the “SI F227L + V106A” value in data set [4] (ratio of CC50/EC50, MT-4 cells) was 16. Take `Cc1cc(C)c(Oc2cc(Nc3ccc(C#N)cc3)ncc2C(=O)NCc2cn(CC(N)=O)nn2)c(C)c1` [3b7, N-((1-(2-amino-2-oxoethyl)-1H-1,2,3-triazol-4-yl)methyl)-6-((4-cyanophenyl)amino)-4-(mesityloxy)nicotinamide]: the “EC50 RES056” value in data set [1] is “low micromolar concentration”.
